Experiments:
Format in all cases: cell-based
A. baumannii R674 [1] = test: Chequerboard combination efficacy of adjuvant with antibiotics
Protocol: (§1) All the solvents were of reagent grade, which were distilled and dried before its use. All the reagents were purchased from Sigma-Aldrich, Alfa-Aesar, S.D. Fine, Avra and Spectrochem, and were used without further purification. Analytical thin layer chromatography (TLC) was performed on E. Merck TLC plates pre-coated with silica gel 60 F254 and visualization was carried out using UV light and Iodine. Column chromatography was performed on silica gel (60-120 mesh) using different ratio of chloroform and methanol solvent system. Nuclear magnetic resonance spectra were recorded on Bruker (AV-400) 400 MHz spectrometer in deuterated solvents. Mass spectra were obtained using 6538-UHD Accurate mass Q-TOF LC-MS instrument. For optical density measurement during bacteriology experiments, Tecan Infinite Pro series M200 Microplate Reader was used. Bacterial strains, A. baumannii (R674), P. aeruginosa (R590), E. coli (R3336) and K. pneumoniae (R3934) were used for the studies.
(§2) The combination efficacy with antibiotics from different classes and individual antibacterial activity of the synthesized adjuvants was evaluated against the above mentioned MDR and NDM-1 strains of Gram-negative bacteria. All the bacteria were grown in peptone. The bacterial samples were freeze dried and stored at −80° C. 3 μl of these stocks were added to 3 mL of peptone and the culture was grown for 6 h at 37° C. prior to the experiments.
(§3) All synthesized compounds were assayed for their antibacterial activity in combination with antibiotics in a modified chequerboard micro-dilution broth format. Stock solutions were made by serially diluting the compounds using autoclaved millipore water. The bacterial freeze dried stock samples were stored at −80° C. About 3 μL of these stocks were added to about 3 mL of the respective broth and the culture was grown for about 6 h at about 37° C. with prior to the experiments. This 6 h grown culture gives about 10^8 cfu/mL in case of A. baumannii R674, P. aeruginosa R590, E. coli R3336 and K. pneumoniae R3934 which were determined by spread plating method. This 6 h grown culture was diluted to give effective cell concentration of 10^5 cfu/mL, and then used for the chequerboard assay. Adjuvants and antibiotics were serially diluted in two-fold, in sterile millipore water. 25 μL of these serial dilutions of the antibiotics and 25 μL of compounds were added to the wells of 96 well plate followed by the addition of about 150 μL of bacterial solution (˜10^5 cfu/mL). The plates were then incubated at about 37° C., 150 rpm in the incubator and O.D at 600 nm was recorded at 24 h using TECAN (Infinite series, M200 pro) Plate Reader. The wells with similar OD as the media control contained the required concentration of the antibiotic and adjuvant for antibacterial efficacy. The potentiation ability of the adjuvants was determined by calculating the potentiation factor and the Fractional Inhibitory concentration (FIC) index. Fractional Inhibitory Concentration (FIC) is expressed as, FIC=[X]/MICX, where [X] is the lowest inhibitory concentration of antibiotic in the presence of the adjuvant. Whereas FIC index is expressed as, FICI=FICantibiotic+FICadjuvant. The values of FIC index give an insight about the nature of the combination. Potentiation factor which means fold-reduction in the MIC of the antibiotic, when used in combination with the adjuvant was also determined. Potentiation factor=[Minimum inhibitory concentration (MIC) of antibiotic in absence of adjuvant]/[MIC of antibiotic in presence of adjuvant]. […] The combination efficacies of adjuvants with various antibiotics are furnished in Table 1. It should be noted that various other resistant strains of bacteria (Gram-positive and Gram-negative) can be tested with a number of other antibiotics to check the potentiation capacity of the adjuvants.

P. aeruginosa R590 [2] = test: as above; conditions: P. aeruginosa R590
Protocol: as §1, §2, §3

human RBCs = test: Haemolytic activity; conditions: concentration at which 50% of human blood cells are lysed; 1 h at 37° C.
Protocol: Erythrocytes were isolated from freshly drawn, heparanized human blood and re-suspended to 5 vol % in PBS (pH 7.4). In a 96-well microtiter plate, 150 μl of erythrocyte suspension was added to 50 μl of serially diluted compound. Two controls were made, one without compound and other with 50 μl of 1 vol % solution of Triton X-100. The plate was incubated for 1 h at 37° C. The plate was then centrifuged at 3,500 rpm for 5 min, 100 μl of the supernatant from each well was transferred to a fresh 96-well microtiter plate, and A540 was measured. Percentage of hemolysis was determined as (A−A0)/(Atotal−A0)×100, where A is the absorbance of the test well, A0 the absorbance of the negative controls (without compound), and Atotal the absorbance of 100% hemolysis wells (with Triton X-100), all at 540 nm.
Toxicity studies of the compounds were done on freshly drawn human RBCs. Toxicity of the compounds were defined by their HC50 values (Table 2), i.e. the concentration of compound at which 50% of the blood cells are lysed.

A. baumannii R674 [3] = test: Individual antibacterial activity (MIC) of adjuvants; conditions: adjuvant alone; A. baumannii R674
Protocol: as §2, §3

P. aeruginosa R590 [4] = test: as above; conditions: adjuvant alone; P. aeruginosa R590
Protocol: as §2, §3

Compound | FICI (A. baumannii R674 [1]; antibiotic Rifampicin) | MIC of antibiotic in presence of adjuvant (A. baumannii R674 [1]; antibiotic Rifampicin) [µg/mL] | Potentiation factor (A. baumannii R674 [1]; antibiotic Rifampicin) | Potentiation factor (A. baumannii R674 [1]; antibiotic Tetracycline) | FICI (P. aeruginosa R590 [2]; antibiotic Rifampicin) | MIC of antibiotic in presence of adjuvant (P. aeruginosa R590 [2]; antibiotic Rifampicin) [µg/mL] | Potentiation factor (P. aeruginosa R590 [2]; antibiotic Rifampicin) | MIC of antibiotic in presence of adjuvant (P. aeruginosa R590 [2]; antibiotic Tetracycline) [µg/mL] | Potentiation factor (P. aeruginosa R590 [2]; antibiotic Tetracycline) | HC50 (human RBCs) [µg/mL] | MIC against clinical isolates of bacteria (A. baumannii R674 [3]) [µg/mL] | MIC against clinical isolates of bacteria (P. aeruginosa R590 [4]) [µg/mL] | MIC of antibiotic in presence of adjuvant (A. baumannii R674 [1]; antibiotic Tetracycline) [µg/mL] | FICI (A. baumannii R674 [1]; antibiotic Tetracycline) | FICI (P. aeruginosa R590 [2]; antibiotic Tetracycline)
CC(C)(C)OC(=O)NC(Cc1c[nH]c2ccccc12)C(=O)N(CCCN)CCCN.O=C(O)C(F)(F)F.O=C(O)C(F)(F)F.O=C(O)C(F)(F)F (stereo not drawn) [Compound 5, N,N-bis((3-amino)propyl) 2′-(Boc-amino), 3′-indolo propanamide tris(trifluoroacetate)] | <0.375 | 8 | 8 | <2 | <0.3125 | 8 | 16 | >64 | <4 | >1024 | >512 | >512 | – | – | –
NCCCN(CCCN)CC(=O)NC1C2CC3CC(C2)CC1C3.O=C(O)C(F)(F)F.O=C(O)C(F)(F)F.O=C(O)C(F)(F)F (stereo not drawn) [Compound 6, N-(Adamantan-2-yl)-2-[N′,N′-{bis-(3-amino)propyl}amino] ethanamide tris(trifluoroacetate)] | <0.06 | <0.25 | >256 | <2 | <0.06 | <0.25 | >512 | >64 | <4 | >1024 | 512 | 512 | >64 | – | –
NCCCC[C@H](N)C(=O)NCCCN(CCCNC(=O)[C@@H](N)CCCCN)C(=O)Cc1cccc2ccccc12 [Compound 7, N,N-bis-[(6-(^LLys)amido)propyl] naphthyl ethanamide tetrakis(trifluoroacetate)] | <0.25 | 8 | 8 | 4 | <0.28 | 4 | 32 | 64 | 4 | >1024 | >512 | >512 | 32 | <0.5 | <0.5
NCCCC[C@H](N)C(=O)NCCCN(CCCNC(=O)[C@@H](N)CCCCN)C(=O)CC(c1ccccc1)c1ccccc1 [Compound 8, N,N-bis-[(6-(^LLys)amido)propyl] 3,3-diphenyl propanamide tetrakis(trifluoroacetate)] | <0.19 | 4 | 16 | <2 | <0.14 | 2 | 64 | 64 | 4 | >1024 | >512 | >512 | >64 | – | <0.375
NCCCC[C@H](N)C(=O)NCCCN(CCCNC(=O)[C@@H](N)CCCCN)CC(=O)NC1C2CC3CC(C2)CC1C3.O=C(O)C(F)(F)F.O=C(O)C(F)(F)F.O=C(O)C(F)(F)F.O=C(O)C(F)(F)F.O=C(O)C(F)(F)F (stereo partly drawn) [Compound 9] | <0.14 | 1 | 64 | 8 | <0.13 | 0.5 | 256 | 16 | 16 | >1024 | >512 | >512 | 16 | <0.25 | <0.19
